# Assay results from patent US11491244B2, “Labeled fluorocarbon agents for positron emission tomography imaging” (McMaster University, priority 2017, dated 2022).
# “Also recorded” adds a separate entry of the source.
# Experiments:
# [1] = Solubility of the fluorinated product in fluorocarbons; assay type: physicochemical
# [2] = neat perfluorocarbon; cited from earlier work
# [3] = Stability of [18F]CF3(CF2)7(CH2)3F in water, with and without sonication; assay type: physicochemical
# Procedure: [^18F]CF3(CF2)7(CH2)3F (125 MBq) in FC-72 (2 mL) was separated into 4 equal samples, and water (0.5 mL) was added to each with stirring. At 0.5, 1, 2 and 4 h, the water layer was removed and the amount of activity measured. In addition, [^18F]CF3(CF2)7(CH2)3F (28 MBq) in FC-72 (130 μL) and DI water (2 mL) was suspended in ice and sonicated using a Branson, Digital S450D Sonifier (Emerson Canada, Markham, ON, Canada) for 10 min at 10% amplitude, using 1 second on-1 second off pulses. The samples were centrifuged and the activity in the aqueous layers were measured using a gamma counter.
# The focus shifted to using precursors with a propyl spacer in an attempt to minimize the influence of the electron withdrawing fluorine groups. The mesylate CF3(CF2)7(CH2)3OMs and tosylate CF3(CF2)7(CH2)3OTs were prepared and labelled with [^18F]F^−. The tosylate produced the desired compound (RCY 15%±3; n=5) when the reaction was heated to 75° C. for 30 min. While the overall yield was modest, the product could be easily isolated and separated from impurities by liquid-liquid extraction using FC-72 and water.
compound,measurement,setting,value
FCCC(F)(F)C(F)(F)C(F)(F)C(F)(F)C(F)(F)C(F)(F)C(F)(F)C(F)(F)F [CF3(CF2)7(CH2)2F],Solubility in FCs,[1],good solubility in FCs
"FC(F)(F)C(F)(F)C(F)(F)C(F)(F)C(F)(F)C(F)(F)F [PFH, perfluorohexane]",Water Solubility 25° C.,[2],Insoluble
same,Water Solubility 25° C. (bound),[2],(<25 ppm)
"FC(F)(F)C(F)(F)C(F)(F)C(F)(F)C(F)(F)C(F)(F)C(F)(F)C(F)(F)Br [PFOB, perfluorooctylbromide]",Water Solubility 25° C.,[2],Insoluble
FC(F)(F)C(F)(F)C(F)(F)C(F)(F)C(F)(F)C(F)(F)C(F)(F)C(F)(F)CCC[18F] [[^18F]CF3(CF2)7(CH2)3F],Activity in the aqueous layer post-sonication,"[3]; FC-72 and DI water, sonicated without stabilizing surfactants",no activity was found in the aqueous layer
same,Free [18F]F− by radioHPLC and radioTLC,[3]; FC-72 solution extracted with water periodically over 4 h,no evidence of free [^18F]F^−
same,Loss of fluoride in vitro / in solution,[3]; left in solution over the timeframe of the imaging studies,no signs of loss of fluoride; also recorded: stable with respect to loss of fluoride in vitro
